The source of these data is publication PMC7099625, “Exploration of thiaheterocyclic hHDAC6 inhibitors as potential antiplasmodial agents” (Future Medicinal Chemistry, 2017).

The test system of one test is P. falciparum (NF54). Briefly: Antiplasmodial parasite lactate dehydrogenase assay, chloroquine-sensitive strain NF54. It counts as cell-based, Plasmodium falciparum. The following applies: read-out: IC50 NF54. The method, then: (§1) Continuous in vitro cultures of asexual erythrocyte stages of P. falciparum were maintained using a modified method of Trager and Jensen. Quantitative assessment of antiplasmodial activity in vitro was determined via the parasite lactate dehydrogenase assay using a modified method described by Makler. The test samples were prepared to a 20 mg/ml stock solution in 100% DMSO. Stock solutions were stored at -20°C. Further dilutions were prepared in complete medium on the day of the experiment. CQ and artesunate were used as the reference drugs. A full dose–response was performed to determine the concentration inhibiting 50% of parasite growth (IC50 value). Test samples were tested at a starting concentration of 100 μg/ml, which was then serially diluted twofold in complete medium to give 10 concentrations; with the lowest concentration being 0.2 μg/ml. The same dilution technique was used for all samples. References were tested at a starting concentration of 1 μg/ml.
(§2) The antiplasmodial activity of this set of structures was first determined through a modified parasite lactate dehydrogenase assay against a CQ-sensitive (CQS) strain of P. falciparum (NF54). […] Finally, a selectivity index (SI = IC50 CHO/IC50 NF54) and a resistance index (RI = IC50 Dd2/IC50 NF54) was calculated to be able to easily compare the therapeutic window (active concentration vs toxic concentration) and sensitivity toward resistance developing.

For a further test, the system named is P. falciparum (Dd2). As to the kind of experiment: Antiplasmodial parasite lactate dehydrogenase assay, chloroquine-resistant strain Dd2. The format is cell-based, Plasmodium falciparum. The following applies: read-out: IC50 Dd2. How it is done:
as §1, §2

Test [1] relates to Chinese Hamster Ovary (CHO) cells. As to the kind of experiment: MTT in vitro cytotoxicity assay. It counts as cell-based. The settings on record: triplicate on one occasion. The method, then:
Test samples were screened for in vitro cytotoxicity against a mammalian cell-line, Chinese Hamster Ovary (CHO), using the 3-(4,5-dimethylthiazol-2-yl)-2,5-diphenyltetrazoliumbromide (MTT)-assay. The MTT-assay is used as a colorimetric assay for cellular growth and survival, and compares well with other available assays. The tetrazolium salt MTT was used to measure all growth and chemosensitivity. The test samples were tested in triplicate on one occasion. The same stock solutions prepared for antiplasmodial evaluation were used for cytotoxicity testing. Test compounds were stored at -20°C until use. Dilutions were prepared on the day of the experiment. Emetine was used as the reference drug in all experiments. The starting concentration was 100 μg/ml, which was serially diluted in complete medium with tenfold dilutions to give six concentrations, the lowest being 0.001 μg/ml. […] The IC50 values were obtained from full dose–response curves, using a nonlinear dose–response curve fitting analysis via GraphPad Prism v.4 software. […]

Another test relates to hHDAC6. On the set-up: method as in PMID 23538448, PMID 25994553, PMID 26822143, PMID 27717044. The settings on record: hHDAC6 inhibition, previously described; read-out: IC50 HDAC6; cited from earlier work.
Setting [2] is: chloroquine-sensitive (CQS) P. falciparum strain NF54, asexual erythrocyte stages, pLDH assay.
Where [3] appears, read: chloroquine-resistant (CQR) P. falciparum strain Dd2, asexual erythrocyte stages, pLDH assay.

pIC50: −log10 of the molar value. Where two headings read alike, the source gives them in different places.

Consider `O=C(NO)c1ccc(Cn2c3c(c4ccccc42)C[S+]([O-])CC3)cc1` (racemic) [Compound 1j], for which the pIC50 is 5.89 in the test with P. falciparum (NF54) (setting [2]), 5.89 in the test with P. falciparum (Dd2) (setting [3]), less than 3.55 in test [1] and 7.85 in the test with hHDAC6.
In the case of `O=C(NO)c1ccc(Cn2c3c(c4cc(F)ccc42)C[S+]([O-])CC3)cc1` (racemic) [Compound 1k], the pIC50 was 6.10 in the test on P. falciparum (Dd2) (setting [3]) and less than 3.57 in test [1].
On to `O=C(NO)c1ccc(CN2c3cc(Cl)ccc3SCC3CCCC32)cc1` (racemic) [Compound 3b], for which the pIC50 with P. falciparum (NF54) (setting [2]) is less than 5.61; with P. falciparum (Dd2) (setting [3]), less than 5.61; in test [1], 4.38; in the test with hHDAC6, 6.19.
As for `O=C(NO)c1ccc(CN2c3cc(C(F)(F)F)ccc3SCC3CCCC32)cc1` (racemic) [Compound 3c], the pIC50 was 5.82 in the test on P. falciparum (NF54) (setting [2]), less than 5.64 in the test with P. falciparum (Dd2) (setting [3]), 4.21 in test [1] and 6.70 in the test with hHDAC6.
Turning to `O=C(NO)c1ccc(CN2c3cc(Cl)ccc3S(=O)(=O)CC3CCCC32)cc1` (racemic) [Compound 3e], the pIC50 is 4.45 in test [1] and 7.17 in the test on hHDAC6.
Turning to `O=C(NO)c1ccc(CN2c3cc(C(F)(F)F)ccc3S(=O)(=O)CC3CCCC32)cc1` (racemic) [Compound 3f], the pIC50 is 6.06 in the test with P. falciparum (NF54) (setting [2]), 6.15 in the test on P. falciparum (Dd2) (setting [3]) and 4.25 in test [1].
Take `O=C(NO)c1ccc(CN2c3cc(Cl)ccc3SCC3CCCC32)cc1` (racemic) [Compound 3i]: the negative-log IC50 (pIC50) in the test with P. falciparum (NF54) (setting [2]) was less than 5.61; with P. falciparum (Dd2) (setting [3]), 5.80; in test [1], 4.29; with hHDAC6, 6.80.
For the compound `C[C@H]1[C@H](OC(=O)CCC(=O)O)O[C@@H]2O[C@@]3(C)CC[C@H]4[C@H](C)CC[C@@H]1[C@@]24OO3` [Artesunate, artesunate, reference compound], the pIC50 in the test on P. falciparum (NF54) (Plasmodium falciparum, chloroquine-sensitive (CQS) P. falciparum strain NF54, asexual erythrocyte stages, pLDH assay) is more than 8.00; in the test with P. falciparum (Dd2) (Plasmodium falciparum, chloroquine-resistant (CQR) P. falciparum strain Dd2, asexual erythrocyte stages, pLDH assay), 7.80.
`CCN(CC)CCCC(C)Nc1ccnc2cc(Cl)ccc12` (stereo not shown) [Chloroquine, chloroquine, reference compound]: the pIC50 was 8.00 with P. falciparum (NF54) (Plasmodium falciparum, NF54, Erythrocyte) and 6.76 with P. falciparum (Dd2) (Plasmodium falciparum, DD2, Erythrocyte).
In the case of `O=C(NO)c1ccc(Cn2c3c(c4ccccc42)CSCC3)cc1` [Compound 1a], the pIC50 with P. falciparum (NF54) (setting [2]) was 4.43; in the test on hHDAC6, 7.82.
Consider `COc1cc(C(=O)NO)ccc1Cn1c2c(c3ccccc31)CSCC2` [Compound 1b], for which, in the test with P. falciparum (NF54) (setting [2]), the pIC50 was 4.85.
On to `O=C(NO)c1ccc(Cn2c3c(c4cc(F)ccc42)CSCC3)cc1` [Compound 1c], for which the pIC50 in the test on P. falciparum (NF54) (setting [2]) was 5.66; with P. falciparum (Dd2) (setting [3]) it was 5.51; in test [1] it was 3.98; in the test on hHDAC6, 7.66.
Regarding `COc1cc(C(=O)NO)ccc1Cn1c2c(c3cc(F)ccc31)CSCC2` [Compound 1d], in the test on P. falciparum (NF54) (setting [2]), the pIC50 was 4.63.
As to `O=C(NO)c1ccc(Cn2c3c(c4ccccc42)CS(=O)(=O)CC3)cc1` [Compound 1e], the pIC50 in the test on P. falciparum (NF54) (setting [2]) is 4.97; with hHDAC6, 8.70.
For `COc1cc(C(=O)NO)ccc1Cn1c2c(c3ccccc31)CS(=O)(=O)CC2` [Compound 1f], the pIC50 in the test on P. falciparum (NF54) (setting [2]) is 4.68; with hHDAC6, 5.70.
In the case of `O=C(NO)c1ccc(Cn2c3c(c4cc(F)ccc42)CS(=O)(=O)CC3)cc1` [Compound 1g], the pIC50 with P. falciparum (NF54) (setting [2]) was 4.80; in the test on hHDAC6 it was 8.40.
`COc1cc(C(=O)NO)ccc1Cn1c2c(c3cc(F)ccc31)CS(=O)(=O)CC2` [Compound 1h]: the results for the pIC50 in the test on P. falciparum (NF54) (setting [2]) and in the test with hHDAC6 were 4.49 and 5.89, respectively.
In turn, `O=C(NO)c1ccc(Cn2c3c(c4cc(Br)ccc42)CS(=O)(=O)CC3)cc1` [Compound 1i] had a pIC50 in test [1] of 3.96.
Consider `O=C(NO)c1cccc(Cn2c3c(c4ccccc42)CSCC3)c1` [Compound 1n], for which the values for the pIC50 (in the test with P. falciparum (NF54) (setting [2]); in the test with P. falciparum (Dd2) (setting [3]); in test [1]) were 5.83, 5.66 and less than 3.53, respectively.
On the same counts, the results for `O=C(NO)c1cccc(Cn2c3c(c4cc(F)ccc42)CSCC3)c1` [Compound 1o] are 5.88, 5.84 and 4.32.
For the compound `O=C(NO)c1cccc(Cn2c3c(c4ccccc42)CS(=O)(=O)CC3)c1` [Compound 1p], the pIC50 in the test with P. falciparum (NF54) (setting [2]) is 5.26.
The same measure, in the same setting: to `O=C(NO)c1cccc(Cn2c3c(c4cc(F)ccc42)CS(=O)(=O)CC3)c1` [Compound 1q] belongs 5.11; to `O=C(NO)c1cccc(Cn2c3c(c4cc(-c5ccccc5)ccc42)CS(=O)(=O)CC3)c1` [Compound 1r], 5.09.
With `O=C(NO)c1ccc(NCc2csc3ccccc23)cc1` [Compound 2a], the pIC50 is 5.80 with P. falciparum (NF54) (setting [2]), 5.67 in the test with P. falciparum (Dd2) (setting [3]), 4.90 in test [1] and 7.85 in the test with hHDAC6.
As for `O=C(NO)c1ccc(N(Cc2ccccc2)Cc2csc3ccccc23)cc1` [Compound 2b], the negative logarithm of the IC50 (pIC50) with P. falciparum (NF54) (setting [2]) was 4.49.
In the case of `O=C(NO)c1ccc(NCc2csc3ccc(Br)cc23)cc1` [Compound 2c], the pIC50 in the test with P. falciparum (NF54) (setting [2]) is 5.99; in the test with P. falciparum (Dd2) (setting [3]) it was 5.62; in test [1] it was 4.51; in the test with hHDAC6 it was 7.43.
`O=C(NO)c1ccc(N(Cc2ccccc2)Cc2csc3ccc(Br)cc23)cc1` [Compound 2d]: the pIC50 in the test on P. falciparum (NF54) (setting [2]) is 4.75.
The same measure, in the same setting: to `O=C(NO)c1ccc(NCc2csc3ccc(-c4ccccc4)cc23)cc1` [Compound 2e] belongs 5.29; to `O=C(NO)c1ccc(N(Cc2ccccc2)Cc2csc3ccc(-c4ccccc4)cc23)cc1` [Compound 2f], 5.24.
For `O=C(NO)c1ccc(NCc2csc3cc(Br)ccc23)cc1` [Compound 2g], the pIC50 in the test with P. falciparum (NF54) (setting [2]) was 5.89; in the test with P. falciparum (Dd2) (setting [3]) it was 5.80; in test [1], 4.34; in the test on hHDAC6, 7.19.
Take `O=C(NO)c1ccc(N(Cc2ccccc2)Cc2csc3cc(Br)ccc23)cc1` [Compound 2h]: the pIC50 in the test with P. falciparum (NF54) (setting [2]) was 5.07.
Take `O=C(NO)c1ccc(NCc2csc3cc(-c4ccccc4)ccc23)cc1` [Compound 2i]: the pIC50 in the test on P. falciparum (NF54) (setting [2]) is 5.48; in the test on P. falciparum (Dd2) (setting [3]) it was 5.94; in test [1], 4.51.
Turning to `O=C(NO)c1ccc(N(Cc2ccccc2)Cc2csc3cc(-c4ccccc4)ccc23)cc1` [Compound 2j], the pIC50 in the test on P. falciparum (NF54) (setting [2]) is 5.30.
On the same count and under the same terms, in the case of `Cc1cc(C(=O)NO)ccc1NCc1csc2ccccc12` [Compound 2k] it was 4.43.
For the compound `O=C(NO)c1ccc(CN2c3ccccc3SCC3CCCC32)cc1` (stereo not shown) [Compound 3a], the pIC50 in the test with P. falciparum (NF54) (setting [2]) is 5.80; in the test on P. falciparum (Dd2) (setting [3]) it was less than 5.57; in test [1], 3.98; in the test on hHDAC6 it was 7.44.
As for `O=C(NO)c1ccc(CN2c3ccccc3S(=O)(=O)CC3CCCC32)cc1` (stereo not shown) [Compound 3d], the pIC50 is 6.03 in the test on P. falciparum (Dd2) (setting [3]) and 3.97 in test [1].
Consider `O=C(NO)c1ccc(CN2c3ccccc3[S+]([O-])CC3CCCC32)cc1` (stereo not shown) [Compound 3g], for which the pIC50 in the test on P. falciparum (NF54) (setting [2]) is 5.90; in the test with P. falciparum (Dd2) (setting [3]), less than 5.59; in test [1] it was 3.76; in the test on hHDAC6 it was 8.22.
Take `O=C(NO)c1ccc(CN2c3ccccc3SCC3CCCCC32)cc1` (stereo not shown) [Compound 3h]: the pIC50 was less than 5.58 with P. falciparum (NF54) (setting [2]), less than 5.58 in the test with P. falciparum (Dd2) (setting [3]), 4.06 in test [1] and 7.48 in the test with hHDAC6.
For the compound `O=C(NO)c1ccc(CN2c3ccccc3SCC3CCCCC32)cc1` (stereo not shown) [Compound 3j], the pIC50 in the test with P. falciparum (NF54) (setting [2]) was less than 5.58; in the test with P. falciparum (Dd2) (setting [3]), less than 5.58; in test [1], 4.21; in the test with hHDAC6 it was 7.04.
The compound `CC[C@H]1CN2CCc3cc(OC)c(OC)cc3[C@@H]2C[C@@H]1C[C@H]1NCCc2cc(OC)c(OC)cc21` [Emetine, reference compound] showed a negative logarithm of the IC50 (pIC50) in test [1] (Cricetulus griseus) of 6.95.
